Data reported in patent US6458770B1, “Parenteral formulations comprising carbamazepine or its derivatives” (Novartis AG, priority 1997, dated 2002).

Assay: Solubility of the active agent in water
Assay type: physicochemical
Details: 25° C., pH of 5.8 to 6.0
Procedure: A wide range of container sizes may be employed. Container size may be conveniently categorised as Low-Volume, i.e. 100 ml or less and High-Volume, i.e. above 100 ml and typically 250 ml. […] parenteral formulations could of course be employed but this may require the use of an organic co-solvent or other solubilising aid which is less desirable than a totally water-based formulation.

NC(=O)N1c2ccccc2CC(O)c2ccccc21 (stereo not shown) [COMPOUND A, 10-hydroxy-10,11-tetrahydrocarbamazepine]
solubility in water: 3200 to 4200 µg/mL
